Experimental data from US20240132511A1, “TREATMENTS OF PRADER-WILLI SYNDROME” (Neuren Pharmaceuticals Limited, priority 2021, published 2024).

Key:
[1] = test system: Magel2-null mice; experiment: Elevated Plus Maze (time in open arms); format: in vivo, mouse; parameters: key: **** = p < 0.0001; ns = not significant
Excerpt: (§1) The mouse locus 7qB4/B5 (syntenic with the Prader-Willi region at chromosome position 15q11-q13 in humans) encompasses the cluster of paternally-expressed imprinted genes Magel2, Ndn, Mkrn3, and Peg12. As maternal imprinting silences the Magel2 allele, only the paternally inherited Magel2 allele is expressed. Heterozygous females were bred with wild-type males (or C57BL/6J inbred males) to maintain the line; as the resulting offspring will have no abnormal phenotype. To obtain “Magel2-null” offspring (both maternal and paternal Magel2 alleles are non-functional), wild-type females are bred with heterozygous males; allowing maternal transmission of the imprinted/silenced wild-type allele and paternal transmission of the Magel2-lacZ (null) allele. Magel2-null mice have disrupted circadian rhythm and metabolism, total activity, food consumption, weight before weaning, and fertility in both sexes, as well as increased adiposity after weaning and altered behavior. Magel2-null mice on this C57BL/6J genetic background recapitulate Prader-Willi syndrome. Because the genetic mutation in the Magel2-null animals is the same as the mutation in human beings, studies in Magel2-null mice are reasonably predictive of effects of compounds in human beings.
(§2) In vivo experiments were conducted in C57BL/6-Magel2tm1Stw/J (Magel2-null) mice at age P60 and their wild-type littermates during the light phase (littermates that were wild-type for Magel2 were used as controls). Ten mice per treatment group were used for studies 1 and 2, and six mice per group for study 3. In study 1: C57BL/6-Magel2tm1Stw/J (Magel2-null) mice were assessed on behavioral assays. Study 2 tested the efficacy of cG-2-AllylP in treating obesity and insulin levels in Magel2-null mice. Study 3 tested the IGF-1 level in Magel2-null mice. Because human beings have the same genetic abnormality, studies of Magel2-null mice are reasonably predictive of effects of compounds of Formulas I, II, III and IV in human beings with Prader-Willi Syndrome.
(§3) Testing was performed during the light phase of the circadian cycle, with the order of testing being determined by the principle of conducting the most stressful tests last. Assays were designed to reproduce and expand on the original behavioral characterization of Magel2-null mice. Magel2-null and wild-type control mice were dosed once daily for 6 weeks prior to testing and tested 30 minutes following a dose of cG-2-AllylP (NNZ2591). Study groups and the treatment matrix are described in Table 2 below.
The Elevated Plus Maze test is used to assess anxiety related behaviors. Normal mice show a preference for being in closed arms over open arms.

[2] = test system: Magel2-null mice; experiment: Fat mass in female Magel2-null mice; format: in vivo, mouse; parameters: key: **** = p < 0.0001; ns = not significant
Method: as §2, §3
Prader-Willi Syndrome is associated with metabolic and hormonal abnormalities in humans. Magel2-null mice recapitulate some of the metabolic and hormonal aspects of humans with Prader-Willi Syndrome. Experiments were conducted to determine if cG-2-AllylP could have a normalizing effect in metabolic and hormonal aspects.
Because female Magel2-null mice present a significant increase in body weight compared with their littermate wild-type controls, female Magel2-null mice were used for this study.

[3] = test system: Magel2-null mice; experiment: Circulating IGF-1 level in Magel2-null mice; format: in vivo, mouse; parameters: key: **** = p < 0.0001; ns = not significant
Method: as §2, §3
Prader-Willi Syndrome may be associated with altered IGF-1 levels in humans.

[4] = test system: Magel2-null mice; experiment: Sniffing test of social interaction; format: in vivo, mouse; parameters: key: **** = p < 0.0001; ns = not significant
Excerpt: as §1, §2, §3
(§4) People with Prader-Willi Syndrome show deficits in social behavior compared with people without Prader-Willi Syndrome. Two tests were carried out to assess the social behavior deficits of Magel2-null mice.
The sniffing test of social interaction measures the number of sniffing events.

[5] = test system: Magel2-null mice; experiment: Partition test of social preference; format: in vivo, mouse; parameters: key: **** = p < 0.0001; ns = not significant
Excerpt: as §1, §2, §3, §4
The partition test of social preference measures the preference shown for an object versus a familiar mouse.

[6] = Delivery of cG-2-AllylP into CSF, blood and brain after single oral gavage dose; format: in vivo, male Sprague Dawley rats; settings: for Mean Test Article Exposure, Blood / Mean Test Article Exposure, CSF / Mean Test Article Exposure, Brain: rat
Method: In an in vivo study, male Sprague Dawley rats (aged 14 weeks) received a single dose of cG-2-AllylP, either 100 mg/kg or 200 mg/kg by oral gavage. Cerebrospinal fluid (CSF) and whole blood were collected at 1.5 and 4 hours post-dose, and brain tissue was collected at 4 hours post-dose to evaluate cG-2-AllylP exposure.

[7] = test system: Magel2-null mice; experiment: Open Field hypoactivity (distance travelled, time spent active); format: in vivo, mouse; parameters: key: **** = p < 0.0001; ns = not significant
Excerpt: as §1, §2, §3
To evaluate whether cG-2-AllylP is effective to treat the hypoactivity in PWS, Open Field studies were carried out.
The relative distance travelled or time spent active is shown on the vertical axis, and the mean of each treatment group is shown on the horizontal axis. Wild-type (WT) mice treated with vehicle alone (left column) were considered to travel 100% or to have 100% activity.

[8] = Magel2-null + Vehicle vs. Magel2-null + NNZ2591 (100 mg/kg)
[9] = Magel2-null + Vehicle vs. Magel2-null + NNZ2591 (200 mg/kg)
[10] = WT + NNZ2591 (100 mg/kg) vs. Magel2-null + NNZ2591 (100 mg/kg)
[11] = WT + NNZ2591 (200 mg/kg) vs. Magel2-null + NNZ2591 (200 mg/kg)
[12] = WT + Vehicle vs. WT + NNZ2591 (200 mg/kg)
[13] = WT + Vehicle vs. WT + NNZ2591 (100 mg/kg)
[14] = Magel2-null + NNZ2591 (100 mg/kg) vs. Magel2-null + NNZ2591 (200 mg/kg)
[15] = WT + NNZ2591 (100 mg/kg) vs. Magel2-null + NNZ2591 (200 mg/kg)
[16] = single oral dose 100 mg/kg, 1.5 h post-dose
[17] = single oral dose 100 mg/kg, 4 h post-dose
[18] = single oral dose 200 mg/kg, 1.5 h post-dose
[19] = single oral dose 200 mg/kg, 4 h post-dose

## C=CCC12CCCN1C(=O)CNC2=O [cG-2-AllylP, (8aS)-Allyl-hexahydropyrrolo[1,2-a]pyrazine-1,4-dione]
[1]; [8]
  Elevated plus maze (time in open arm), Sidak's multiple comparisons test, Summary: **** (**** = p < 0.0001)
[1]; [9]
  Elevated plus maze (time in open arm), Sidak's multiple comparisons test, Summary: **** (**** = p < 0.0001)
[1]; [10]
  Elevated plus maze (time in open arm), Sidak's multiple comparisons test, Summary: ns
[1]; [11]
  Elevated plus maze (time in open arm), Sidak's multiple comparisons test, Summary: ns
[1]; WT + Vehicle vs WT + NNZ2591 (100 mg/kg)
  Elevated plus maze (time in open arm), Sidak's multiple comparisons test, Summary: ns
[1]; [12]
  Elevated plus maze (time in open arm), Sidak's multiple comparisons test, Summary: ns
[2]; [8]
  Effect on fat mass, Sidak's multiple comparisons test, Summary: ns
[2]; [9]
  Effect on fat mass, Sidak's multiple comparisons test, Summary: **** (**** = p < 0.0001)
[2]; [11]
  Effect on fat mass, Sidak's multiple comparisons test, Summary: ns
[2]; [13]
  Effect on fat mass, Sidak's multiple comparisons test, Summary: ns
[2]; [12]
  Effect on fat mass, Sidak's multiple comparisons test, Summary: ns
[3]; [8]
  IGF-1 level, Sidak's multiple comparisons test, Summary: **** (**** = p < 0.0001)
[3]; [11]
  IGF-1 level, Sidak's multiple comparisons test, Summary: ns
[3]; [13]
  IGF-1 level, Sidak's multiple comparisons test, Summary: ns
[3]; [12]
  IGF-1 level, Sidak's multiple comparisons test, Summary: ns
[4]; [14]
  Social interaction, Sidak's multiple comparisons test, Summary: ns
[4]; [8]
  Social interaction, Sidak's multiple comparisons test, Summary: **** (**** = p < 0.0001)
[4]; [9]
  Social interaction, Sidak's multiple comparisons test, Summary: **** (**** = p < 0.0001)
[4]; [10]
  Social interaction, Sidak's multiple comparisons test, Summary: ns
[4]; [11]
  Social interaction, Sidak's multiple comparisons test, Summary: ns
[4]; WT + Vehicle v. WT + NNZ2591 (100 mg/kg)
  Social interaction, Sidak's multiple comparisons test, Summary: ns
[4]; [12]
  Social interaction, Sidak's multiple comparisons test, Summary: ns
[5]; [8]
  Social preference, Sidak's multiple comparisons test, Summary: **** (**** = p < 0.0001)
[5]; [9]
  Social preference, Sidak's multiple comparisons test, Summary: **** (**** = p < 0.0001)
[5]; [10]
  Social preference, Sidak's multiple comparisons test, Summary: ns
[5]; [15]
  Social preference, Sidak's multiple comparisons test, Summary: ns
[5]; [11]
  Social preference, Sidak's multiple comparisons test, Summary: ns
[5]; [13]
  Social preference, Sidak's multiple comparisons test, Summary: ns
[5]; [12]
  Social preference, Sidak's multiple comparisons test, Summary: ns
[6]; 4 hours post-dose
  Concentration in blood versus brain tissue: approximately equivalent
[6]; blood and CSF at 1.5 hours, blood, CSF and brain at 4 hours, single oral dose 100 vs 200 mg/kg
  Dose dependence of concentration: approximately proportional increase
[6]; [16]
  Mean Test Article Exposure, Blood: 58.5 µg/mL
  Mean Test Article Exposure, CSF: 40.4 µg/mL
[6]; [17]
  Mean Test Article Exposure, Blood: 15.6 µg/mL
  Mean Test Article Exposure, Brain: 22.6 µg/mL
  Mean Test Article Exposure, CSF: 11.0 µg/mL
[6]; [18]
  Mean Test Article Exposure, Blood: 116.0 µg/mL
  Mean Test Article Exposure, CSF: 82.2 µg/mL
[6]; [19]
  Mean Test Article Exposure, Blood: 34.2 µg/mL
  Mean Test Article Exposure, Brain: 37.0 µg/mL
  Mean Test Article Exposure, CSF: 24.7 µg/mL
other
  melting point: 106 to 109 °C
[7]; [14]
  Open Field (Hypoactivity) - Motility, Sidak's multiple comparisons test, Summary: ns
[7]; [8]
  Open Field (Hypoactivity) - Distance travelled, Sidak's multiple comparison test, Summary: **** (**** = p < 0.0001)
[7]; [9]
  Open Field (Hypoactivity) - Distance travelled, Sidak's multiple comparison test, Summary: **** (**** = p < 0.0001)
  Open Field (Hypoactivity) - Motility, Sidak's multiple comparisons test, Summary: **** (**** = p < 0.0001)
[7]; Magel2-null + Vehicle vs. WT + NNZ2591 (100 mg/kg)
  Open Field (Hypoactivity) - Motility, Sidak's multiple comparisons test, Summary: **** (**** = p < 0.0001)
[7]; [10]
  Open Field (Hypoactivity) - Distance travelled, Sidak's multiple comparison test, Summary: ns
  Open Field (Hypoactivity) - Motility, Sidak's multiple comparisons test, Summary: ns
[7]; [15]
  Open Field (Hypoactivity) - Distance travelled, Sidak's multiple comparison test, Summary: ns
[7]; [11]
  Open Field (Hypoactivity) - Distance travelled, Sidak's multiple comparison test, Summary: ns
  Open Field (Hypoactivity) - Motility, Sidak's multiple comparisons test, Summary: ns
[7]; [13]
  Open Field (Hypoactivity) - Distance travelled, Sidak's multiple comparison test, Summary: ns
  Open Field (Hypoactivity) - Motility, Sidak's multiple comparisons test, Summary: ns
[7]; [12]
  Open Field (Hypoactivity) - Distance travelled, Sidak's multiple comparison test, Summary: ns
  Open Field (Hypoactivity) - Motility, Sidak's multiple comparisons test, Summary: ns
